# Results taken from patent US20120316247A1, “PREVENTION AND TREATMENT OF POST-OPERATIVE COGNITIVE DYSFUNCTION (POCD)” (priority 2009, published 2012).
# Values joined by “and” are separate entries in the source; they are usually repeats but may differ in a detail not shown here. Identical values can stand only once. Like-named read-outs stand apart in the source and are kept apart here.
# How the values were obtained:
# [1] = system: caspase-3; details: for sevoflurane-induced caspase-3 activation, percentage of control (100%): sevoflurane alone 356%; for caspase-3 activation, fold of control (1-fold): 3% sevoflurane for 6 h, FIG. 4B
# Description: (§1) The animal protocol was approved by the Standing Committee on Animals at Massachusetts General Hospital (Boston, Mass.). Naive mice (C57BL/6J mice [The JacksonLaboratory, Bar Harbor, Me.]) and Alzheimer's disease (AD) transgenic mice (B6.Cg-Tg[APPswe, PSEN1dE9]85 Dbo/J, [The Jackson Laboratory]) were distinguished by genotyping. All animals (3-12 mice per experiment) were 6 days old at the time of anesthesia and were randomized by weight and gender into experimental groups that received either 3 or 2.1% sevoflurane plus 60% oxygen for either 6 or 2 h, and control groups received 60% oxygen for 6 or 2 h at identical flow rates in identical anesthetizing chambers. […] Anesthetic and oxygen concentrations were measured continuously (Datex, Tewksbury, Mass.), and the temperature of the anesthetizing chamber was controlled to maintain the rectal temperature of the mice at 37°±0.5° C. In the interaction studies, the inositol trisphosphate receptor (IP3R) antagonist 2-aminoethoxydiphenyl borate (2-APB) (5 and 10 mg/kg) was administered to the mice via intraperitoneal injection 10 min before the anesthetic was administered. 2-APB was first dissolved in dimethyl sulfoxide to 20 μg/μl and then diluted with saline to 0.25 μg/μl (1:80 dilution) and to 0.5 μg/μl (1:40 dilution).
# (§2) Immediately after sevoflurane anesthesia, the mouse was decapitated, and the brain cortex was harvested. The brain tissues were homogenized in an immunoprecipitation buffer (10 mM Tris-HCl, pH 7.4, 150 mM NaCl, 2 mM ethylenediaminetetraacetic acid, and 0.5% Nonidet P-40) plus protease inhibitors ([1 μg/ml aprotinin, 1 μg/ml leupeptin, and 1 μg/ml pepstatin A]; [Roche, Indianapolis, Ind.]). The lysates were collected, centrifuged at 13,000 rpm for 15 min, and quantified for total proteins by using the bicinchoninic acid protein assay kit (Pierce, Iselin, N.J.).
# (§3) The harvested brain tissues were subjected to Western blots as described by Xie et al. (16). Briefly, 60 μg of each lysate was separated on sodium dodecyl sulfate polyacrylamide gel electrophoresis gels and transferred to polyvinylidene difluoride blots (Bio-Rad, Hercules, Calif.) using a semidry electrotransfer system (Amersham Biosciences, San Francisco, Calif.). The blot was incubated overnight at 4° C. with primary antibodies, followed by washes and incubation with appropriate secondary antibodies, and visualized with a chemoluminescence system. A caspase-3 antibody (1:1,000 dilution; Cell Signaling Technology, Danvers, Mass.) was used to recognize the caspase-3 fragment (17-20 kDa) resulting from cleavage at aspartate position 175 and fulllength (FL) caspase-3 (35-40 kDa). TNF-α levels were recognized by antibody ab6671 (26 kDa; 1:1,000; Abcam, Cambridge, Mass.). The antibody to nontargeted protein β-actin was used to control for loading differences in total protein amounts. The figures showing blots with only the caspase-3 fragment are the same Western blots with extended exposure time during the development of the film. The signal of the Western blot band was detected using Molecular Imager VersaDoc MP 5000 System (Bio-Rad). The intensity of signals was analyzed using a Bio-Rad image program (Quantity One) and a National Institutes of Health Image Version 1.37 (National Institutes of Health, Bethesda, Md.). Western blots were quantified using two steps. First, levels of β-actin was used to normalize (e.g., determining the ratio of FL caspase-3 amount to β-actin amount) the levels of proteins to control for loading differences in total protein amounts.
# [2] = system: Aβ; details: 2-APB (10 mg/kg, FIG. 7D) before 3% sevoflurane for 6 h; neonatal naïve mice; sevoflurane alone 304%; P=0.042
# Description: as §1
# (§4) Data were expressed as mean±SD.
# [3] = system: H4 naïve cells; details: propofol before 2% isoflurane, FIG. 11
# Experimental: (§5) To this end, H4 human neuroglioma cells stably transfected to express human full-length wild-type APP (H4-APP cells) in cell culture media with […] Aβ40, Aβ42 or Aβ40 plus Aβ42, were treated with an clinically relevant concentration of propofol (e.g., 100 μM) for one hour, and then with 2% isoflurane (plus 21% O2 and 5% CO2) for six hours. Wild-type H4 human neuroglioma cells (H4 naïve cells) and primary neurons from naïve (C57BL/6) mice were also used in the study for comparison. To obtain primary neurons, naïve (C57BL/6) mice with gestation stage of day 15 were euthanized with CO2. The primary neurons were harvested from the embyros. The harvested neurons were cultured for 7 to 10 days prior to treatment.
# (§6) Anesthesia machine was used for the delivery of 2% isoflurane to the cells or neurons plated in a six well plate in a sealed plastic box located in a 37° C. incubator and Datex infrared gas analyzer was used for the monitoring (FIGS. 9A to 9C). The cells and the cell culture media were harvested at the end of the treatment. Caspase-3 activation and Aβ oligomerization were measured with quantitative Western blotting. Chemiluminescence signal from the western blot membranes was captured using a VersaDoc Imaging System and images were analyzed using Quantity One software (BioRad Hercules, Calif.).
# (§7) Apoptosis is a programmed cell death requiring cysteine proteases called caspases, and caspase-3 activation is one of the final steps of apoptosis. Thus, a caspase-3 antibody (Cell Signaling, Danvers, Mass.) was used to recognize full-length (35 kDa), and the large fragment of cleaved caspase-3 (17-20 kDa).
# [4] = system: H4-APP cells
# Experimental: as §5, §6, §7
# [5] = system: primary neurons from naïve (C57BL/6) mice; details: propofol before 2% isoflurane, gestation day 15, FIG. 12
# Experimental: as §5, §6, §7
# [6] = system: Aβ40 and Aβ42 oligomerization
# Experimental: as §5, §6
# In addition to the propofol effects on caspase-3 activation, its effects on Aβ oligomerization were assessed. H4-APP cell culture media were exposed to 2% isoflurane with and without 100 μM propofol for six hours. Antibody mAb 6E10 (1:3,000, Sigma) was used to detect Aβ40 and Aβ42 oligomerization.
# [7] = system: amyloid precursor protein (APP); details: mouse, in vivo
# Description: as §1, §2, §3
# [8] = system: TUNEL-positive cells (apoptosis) in the brain tissues; test: TUNEL staining of brain sections of neonatal mice; assay type: in vivo; details: 3% sevoflurane plus 60% oxygen for 6 h, FIG. 5B
# Experimental: Terminal Deoxynucleotidyl Transferase dUTP Nick End Labeling Staining Assay. […] The mouse brain tissues were removed and exposed to immersion fixation for 24 h at 4° C. in 4% paraformaldehyde, and then 5-μm paraffin-embedded sections were made from the brain tissues. TMRred kit (Roche, Palo Alto, Calif.) was used for terminal deoxynucleotidyl transferase dUTP nick end labeling (TUNEL) staining. Briefly, the brain sections were incubated in a permeabilization solution and then incubated with a TUNEL reaction mixture. Finally, the sections were incubated with 10 μg/ml Hoechst 33342 in a humidified dark chamber. The sections from the same brain areas between control group mice and the sevoflurane-treated mice were then analyzed in a mounting medium under a fluorescence microscope. The TUNEL-positive cells and total cells in five areas of the brain section from each of the mice in the experiments were counted blind-fold under a 20× objective microscope lens. For the double immunocytochemistry staining to identify the cell type of the TUNEL-positive cells, the mouse brain tissues were quickly removed after sevoflurane anesthesia, put into a container with dry ice and ethanol, and then kept in a −80° C. freezer. Five-micrometer frozen sections were cut using a cryostat. […] Finally, the sections were mounted and immediately viewed using a fluorescence microscope.
# as §4
# [9] = Mortality of neonatal mice after sevoflurane anesthesia; assay type: in vivo; details: 6-day-old mice
# Experimental: Naive mice (C57BL/6J mice [The JacksonLaboratory, Bar Harbor, Me.]) and Alzheimer's disease (AD) transgenic mice (B6.Cg-Tg[APPswe, PSEN1dE9]85 Dbo/J, [The Jackson Laboratory]) were distinguished by genotyping. All animals (3-12 mice per experiment) were 6 days old at the time of anesthesia and were randomized by weight and gender into experimental groups that received either 3 or 2.1% sevoflurane plus 60% oxygen for either 6 or 2 h, and control groups received 60% oxygen for 6 or 2 h at identical flow rates in identical anesthetizing chambers. […] The high concentration of sevoflurane anesthesia was used to illustrate the difference of sevoflurane-induced neurotoxicity between neonatal naïve and AD transgenic mice. […] Anesthetic and oxygen concentrations were measured continuously (Datex, Tewksbury, Mass.), and the temperature of the anesthetizing chamber was controlled to maintain the rectal temperature of the mice at 37°±0.5° C.
# [10] = system: apoptosis in the developing rat brain; details: intraventricular injection, Wei and Xie, 6 Curr. Alzheimer Res. 30 (2009); cited from earlier work
compound,measurement,setting,value
"NCCOB(c1ccccc1)c1ccccc1 [2-APB, 2-aminoethoxydiphenyl borate]","sevoflurane-induced caspase-3 activation, percentage of control (100%)","[1]; 5 mg/kg 2-APB i.p. 10 min before 3% sevoflurane for 6 h, neonatal naïve mice, P=0.001",149%
same,"sevoflurane-induced caspase-3 activation, percentage of control (100%)","[1]; 10 mg/kg 2-APB i.p. 10 min before 3% sevoflurane for 6 h, neonatal naïve mice, P=0.005",115%
same,"sevoflurane-induced increase in Aβ levels, percentage of control",[2],157%
"CC(C)c1cccc(C(C)C)c1O [propofol, 2,6-diisopropylphenol]",effect on isoflurane-induced caspase-3 activation,[3],did not attenuate
same,effect on isoflurane-induced caspase-3 activation,"[4]; 100 μM propofol for one hour prior to 2% isoflurane for six hours, H4-APP cells, FIG. 10",attenuated isoflurane-induced caspase-3 activation
same,caspase-3 activation by propofol alone,"[4]; propofol alone, no isoflurane",did not induce
same,effect on isoflurane-induced caspase-3 activation,[5],did not attenuate
same,effect on isoflurane-induced Aβ40 (oligomerization),"[6]; 100 μM propofol for one hour prior to 2% isoflurane, H4-APP cells, FIG. 14B",attenuated
same,effect on isoflurane-induced Aβ42 (oligomerization),"[6]; 100 μM propofol for one hour prior to 2% isoflurane, H4-APP cells, FIG. 14C",attenuated
same,Aβ oligomerization by propofol alone,"[6]; propofol alone, no isoflurane",did not induce
FCOC(C(F)(F)F)C(F)(F)F [sevoflurane],decrease in the ratio of APP-C83 to APP-FL compared with control,[7],45%
same,decrease in the ratio of APP-C99 to APP-FL compared with control,[7],33%
same,"caspase-3 activation, percentage of control (100%)","[1]; 2.1% sevoflurane for 6 h, neonatal AD transgenic mice, FIG. 2D, P=0.045",178%
same,"caspase-3 activation, percentage of control (100%)","[1]; 2.1% sevoflurane for 6 h, neonatal naïve mice, FIG. 2B, P=0.002",183%
same,"caspase-3 activation, percentage of control (100%)","[1]; 3% sevoflurane for 2 h, neonatal naïve mice, FIG. 3B, P=0.074 (did not increase)",128%
same,"caspase-3 activation, fold of control (1-fold)",[1]; neonatal AD transgenic mice,2.45 fold and 2.13 fold
same,"caspase-3 activation, fold of control (1-fold)","[1]; neonatal naïve mice, P=0.003",1.48 fold
same,"caspase-3 activation, percentage of control (100%)","[1]; 3% sevoflurane for 6 h alone, neonatal naïve mice, 2-APB interaction study, FIG. 7B, P=0.002",356%
same,"increase in caspase-3 cleavage (activation), ratio of cleaved caspase-3 fragment to FL-caspase-3, compared with control","[1]; 3% sevoflurane plus 60% oxygen for 6 h, 6-day-old neonatal naïve mice, FIG. 1B, P=0.009",242%
same,"TUNEL-positive cells (apoptosis), fold of control (1-fold)",[8]; neonatal AD transgenic mice,2.13 fold and 2.45 fold
same,"TUNEL-positive cells (apoptosis), fold of control (1-fold)","[8]; neonatal naïve mice, P=0.001",2.08 fold
same,death of the mice,[9]; 2.1% sevoflurane,did not cause the death of the mice
same,mortality rate of the mice,[9]; 3% sevoflurane plus 60% oxygen for 6 h,10-15%
C1CCC[C@H]2CCCN3CC[C@@H](CCCCCC[C@@H]4CCCN5CC[C@@H](CC1)O[C@@H]45)O[C@@H]23 [xestospongin C],effect on isoflurane-induced apoptosis,[10],inhibits isoflurane-induced apoptosis
